Like-named read-outs stand apart in the source and are kept apart here.
Experiments:
human P-gp (MDR1) = molecular target: T1, human P-gp (MDR1) (Homo sapiens, UniProt P08183); assay: Transwell transport of temozolomide, LLC-MDR1 cells; assay type: in vitro ADME; details: 40 μg/ml, LLC-MDR1 versus LLC-PK1 monolayers
T1 construct: expressed in transfected cells; host or cells: LLC-PK1 (porcine kidney) cells transduced with human MDR1
Description: The parental LLC pig-kidney (PK1) cell line and sublines transduced with murine Mdr1a or human MDR1 (12) and the parental Madine Darby Canine Kidney (MDCK) and murine Bcrp1 or human BCRP transduced sublines (13) were seeded on Transwell microporous polycarbonate membrane filters (3.0 μm pore size, 24 mm diameter; Costar Corning, N.Y., USA) at a density of 1×10^6 cells per well in 2 ml of MEM medium (Invitrogen Corporation, Carlsbad, Calif.) containing 10% v/v fetal calf serum. Cells were incubated at 37° C. in 5% CO2 for three days with one medium replacement after the first day. Two hours before the start of the experiment the medium in both compartments was replaced with 2 ml of OptiMEM medium (InVitrogen Corp.). At the start of the experiment the medium in the apical or basolateral compartment was replaced with 2 ml of freshly prepared OptiMEM medium containing 40 μg/ml of temozolomide. […] Zosuquidar (LY335979, 5 μM) was always added to the medium when doing experiments with MDCK cell lines to inhibit endogenous canine P-gp. Samples of 50 μl were collected every 30 min, for up to 2 h after start of the experiment. Because temozolomide is instable in medium at 37° C., we replaced one ml of the donor compartment by a freshly prepared aliquot every 30 min. […]

[1] = Brain penetration study, temozolomide i.v. in wild-type and knockout mice; assay type: in vivo; details: for AUC(0-t): 50 mg/kg, read-out: AUC0-7 h plasma
Description: Based on previous work by Kim et al (11) we have developed a high-performance liquid chromatographic assay for the determination for quantification of temozolomide in medium used for transwell experiments and in mouse plasma and brain tissue homogenates for in vivo pharmacokinetic studies. Separation/quantification was achieved using a Symmetry® C18 column (150×2.0 mm; ID) together with a mobile phase of 7.5% of methanol in 0.5% acetic acid in water, delivered at a flow rate of 0.2 ml/min and UV detection at 330 nm ((PDA996 photodiode array detector; Waters, Milford, Mass., USA or SF 757 detector; Kratos, Ramsey, N.J., USA). Medium from transwell experiments was 10-fold diluted with 0.2% acetic acid in water and 50 μl was injected directly into the HPLC system. Temozolomide was extracted from the acidified plasma and brain tissue homogenate samples (200 μl) with 1.0 ml ethyl acetate. The dried extracts were subsequently dissolved in 100 μl of 5% methanol in 0.2% acetic acid in water and 50 μl was injected into the HPLC system. External calibration was performed since no internal standard was available. The lower and upper limit of quantitation was 0.020 and 10.0 μg/ml, respectively. Samples above the upper limit of quantification were first diluted with acidified blank human plasma. All samples from in vivo studies were analyzed in duplicate in 2 independent analytical series and repeated once more when the results differed by more than 10%.
The brain penetration study comprised cohorts of animals receiving temozolomide (50 mg/kg) by intravenous injection in the tail vein. Each cohort consisted of at least 40 animals in which at least 6 animals were used per time point (t=15 min, 1, 2, 4 and 7 hours post temozolomide administration). […] The mice were anesthetized with metoxyflurane and blood samples were obtained by cardiac puncture and collected on ice in tubes containing potassium EDTA as anticoagulant. The tubes were placed in melting ice, centrifuged within 60 min (10 min, 5000 g, 4° C.) to separate the plasma fraction, which was transferred into clean vials, mixed with 1 M hydrochloric acid (10+1; v/v) and stored at −20° C. until analysis. Immediately after cardiac puncture the mice were killed by cervical dislocation and the brains were dissected and placed on ice. Within 60 min they were weighed and homogenized in 3 ml of ice-cold 1% of BSA in 0.05 M phosphate buffer adjusted to pH 2 and stored at −20° C. until further analysis.
Plasma and brain AUC0-7h values and standard errors were calculated by the linear trapezoidal rule using standard equations (14). The plasma half-life of temozolomide was calculated by linear regression analysis after log transformation of the concentration data using Microsoft Excel 2003. The brain-to-plasma ratio was calculated for each individual animal. The two-sided unpaired Student's t-test was used for statistical analysis of AUC values. Bonferroni's test for multiple comparisons was calculated using SPSS (v12.0.1; SPSS Inc, Chicago, Ill., USA) for brain and plasma levels and brain-to-plasma ratios determined at 2 h post temozolomide administration with the inhibitors and for analyzing the results of the in vivo efficacy study.

[2] = Bcrp1 knockout mice, i.v. 50 mg/kg
[3] = Bcrp, Mdr1ab knockout mice, i.v. 50 mg/kg
[4] = Mdr1ab knockout mice, i.v. 50 mg/kg

T1 sequence (P08183 whole entry): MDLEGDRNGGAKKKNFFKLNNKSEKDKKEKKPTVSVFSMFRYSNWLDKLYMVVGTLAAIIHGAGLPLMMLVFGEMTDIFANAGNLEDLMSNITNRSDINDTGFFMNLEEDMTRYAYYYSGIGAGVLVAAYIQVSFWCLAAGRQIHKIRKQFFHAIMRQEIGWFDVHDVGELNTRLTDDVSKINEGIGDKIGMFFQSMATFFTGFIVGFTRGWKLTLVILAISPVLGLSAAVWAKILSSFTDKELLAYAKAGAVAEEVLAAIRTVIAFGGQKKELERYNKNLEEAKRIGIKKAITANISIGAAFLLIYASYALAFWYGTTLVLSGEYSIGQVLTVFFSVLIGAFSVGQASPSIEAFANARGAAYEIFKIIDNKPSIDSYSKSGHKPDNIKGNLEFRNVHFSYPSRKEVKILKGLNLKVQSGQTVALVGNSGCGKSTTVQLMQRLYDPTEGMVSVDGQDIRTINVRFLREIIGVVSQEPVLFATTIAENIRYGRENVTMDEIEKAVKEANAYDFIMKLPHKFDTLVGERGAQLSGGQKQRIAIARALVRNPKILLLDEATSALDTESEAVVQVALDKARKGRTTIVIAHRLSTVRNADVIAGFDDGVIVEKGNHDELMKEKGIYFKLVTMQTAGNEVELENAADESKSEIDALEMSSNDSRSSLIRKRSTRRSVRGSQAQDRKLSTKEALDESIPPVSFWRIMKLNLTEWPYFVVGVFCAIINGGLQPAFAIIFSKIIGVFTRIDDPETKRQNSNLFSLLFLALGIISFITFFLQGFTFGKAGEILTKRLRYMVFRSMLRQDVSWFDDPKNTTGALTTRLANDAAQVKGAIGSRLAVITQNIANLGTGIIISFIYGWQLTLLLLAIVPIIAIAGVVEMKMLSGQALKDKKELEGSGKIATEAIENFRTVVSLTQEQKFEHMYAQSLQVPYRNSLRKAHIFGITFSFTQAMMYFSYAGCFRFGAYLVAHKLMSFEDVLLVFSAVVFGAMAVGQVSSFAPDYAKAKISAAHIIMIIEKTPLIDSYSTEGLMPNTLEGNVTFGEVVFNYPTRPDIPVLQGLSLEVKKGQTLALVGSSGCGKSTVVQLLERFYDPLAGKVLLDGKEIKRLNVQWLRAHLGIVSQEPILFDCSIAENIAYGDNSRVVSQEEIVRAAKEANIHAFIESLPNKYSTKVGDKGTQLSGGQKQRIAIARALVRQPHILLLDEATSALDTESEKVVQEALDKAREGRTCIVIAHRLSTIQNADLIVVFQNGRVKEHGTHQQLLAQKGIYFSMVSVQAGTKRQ

transport of temozolomide by human P-gp (human P-gp (MDR1); listed as Temozolomide): not readily detected | increase of brain penetration / accumulation relative to wild-type ([1]; Bcrp1/Mdr1ab knockout mice, i.v. 50 mg/kg): 50% | AUC0-7 h, brain [1, 2]: 44.78 ± 1.88^1 μg/g · h | T½plasma [1, 2]: 0.719 ± 0.017^ns h | AUC0-7 h, brain [1, 3]: 56.46 ± 1.17^1,2,3 μg/g · h | T½plasma [1, 3]: 0.705 ± 0.014^ns h | AUC(0-t) ([1]; FVB, mouse, plasma, iv, Bcrp1 knockout mice, i.v. 50 mg/kg): 63000 ± 2140 ng·h/mL | AUC(0-t) ([1]; FVB, mouse, plasma, iv, Bcrp, Mdr1ab knockout mice, i.v. 50 mg/kg): 64500 ± 1290 ng·h/mL | AUC(0-t) ([1]; FVB, mouse, plasma, iv, Mdr1ab knockout mice, i.v. 50 mg/kg): 62200 ± 2050 ng·h/mL | AUC(0-t) ([1]; FVB, mouse, plasma, iv, Wild-type mice, i.v. 50 mg/kg): 65400 ± 2000 ng·h/mL | half-life ([1]; FVB, mouse, plasma, iv, mice, i.v. 50 mg/kg, read-out: plasma half-life, first-order elimination (converted)): 42 min | AUC0-7 h, brain [1, 4]: 44.51 ± 1.56^1 μg/g · h | T½plasma [1, 4]: 0.757 ± 0.021^ns h | AUC0-7 h, brain ([1]; Wild-type mice, i.v. 50 mg/kg): 37.73 ± 1.11 µg·h/g | T½plasma ([1]; Wild-type mice, i.v. 50 mg/kg): 0.689 ± 0.019 h | enhancement of the brain penetration ([1]; absence of both P-gp and Bcrp1 versus wild-type): 1.5 fold
SMILES: Cn1nnc2c(C(N)=O)ncn2c1=O [temozolomide, 8-carbamoyl-3-methyl-[3H]-imidazo[5,1-d]-1,2,3,5-tetrazin-4-one]
transport of temozolomide by human P-gp (human P-gp (MDR1)): very limited if any evidence for transport

Reference: US20090170880A1, “Methods and Means for the Treatment of Cancer” (priority 2007, published 2009)
